Source: paper PMC6471618, “Comparison of the Sulfonamide Inhibition Profiles of the α-Carbonic Anhydrase Isoforms (SpiCA1, SpiCA2 and SpiCA3) Encoded by the Genome of the Scleractinian Coral Stylophora pistillata” (Marine Drugs, 2019)
Entries after “also recorded” stand apart in the source; their conditions may differ. Read-outs that look alike come from different tables or passages of the source.

Tests used:
SpiCA3 = SpiCA3 (Stylophora pistillata, UniProt A0A1B0Y357); type: biochemical
Procedure: An Applied Photophysics stopped-flow instrument (Leatherhead, Surrey (UK)) has been used for assaying the CA catalyzed CO2 hydration activity. […] The un-catalyzed rates were determined in the same manner and subtracted from the total observed rates. […] The inhibition constants were obtained by non-linear least-squares methods using PRISM 3 and the Cheng-Prusoff equation, as reported earlier, and represent the mean from at least three different determinations. All CA isoforms were recombinant ones obtained in-house. All salts/small molecules were of the highest purity available, from Sigma-Aldrich (Milan, Italy).

SpiCA1 = target: SpiCA1; set-up: method as in References 12 and 45; details: ref References 12 and 45, cited from earlier work; for Ki: coral recombinant isoform, stopped flow CO2 hydrase assay; for SpiCA1 inhibition, in words: authors' grading of the KI values of Table 1
hCA II = tested on: hCA II; set-up: method as in References 12 and 45; details: cited from earlier work
SpiCA2 = tested on: SpiCA2; set-up: method as in References 12 and 45; details: ref References 12 and 45, cited from earlier work; for SpiCA2 inhibition, in words: authors' grading of the KI values of Table 1; for Ki: coral recombinant isoform, stopped flow CO2 hydrase assay
hCA I = target: hCA I; set-up: method as in References 12 and 45; details: ref References 12 and 45, cited from earlier work; for Ki: human recombinant isozyme, stopped flow CO2 hydrase assay; for hCA I inhibition, in words: authors' grading of the KI values of Table 1
[1] = tested on: coral calcification rates; set-up: method as in PMID 27513959; details: cited from earlier work
[2] = authors' grading of the KI values of Table 1
[3] = read-out: KI SpiCA3; recombinant coral isoform, stopped-flow CO2 hydration, 20 mM TRIS pH 8.3, 15 min preincubation; errors 5–10%, 3 assays
[4] = recombinant coral isoform, stopped-flow CO2 hydration, 20 mM TRIS pH 8.3, 15 min preincubation; errors 5–10%, 3 assays; read-out: KI SpiCA3

Sequence of SpiCA3 (A0A1B0Y357 entry or part of it): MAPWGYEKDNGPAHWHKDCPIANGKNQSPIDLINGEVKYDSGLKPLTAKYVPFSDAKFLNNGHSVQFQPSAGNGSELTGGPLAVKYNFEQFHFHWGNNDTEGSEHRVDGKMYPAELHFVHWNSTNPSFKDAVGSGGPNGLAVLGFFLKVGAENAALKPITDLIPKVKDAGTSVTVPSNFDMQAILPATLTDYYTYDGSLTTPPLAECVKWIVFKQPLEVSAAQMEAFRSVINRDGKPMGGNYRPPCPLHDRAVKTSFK

Row | Ki (SpiCA3; [4]) [nM] | Structure (SMILES) | SpiCA3 inhibition, in words (SpiCA3; [2]) | Ki (SpiCA1) [nM] | other results
1 | – | Nc1ccc(S(=O)(=O)NCCc2ccc(S(N)(=O)=O)cc2)cc1 [Compound 24] | well inhibited | – | Ki (SpiCA3; [3]): 46 nM
2 | – | NS(=O)(=O)c1ccc(CCO)cc1 [Compound 17] | well inhibited | 770 | Ki (SpiCA3; [3]): 66 nM
3 | – | Nc1ccc(S(N)(=O)=O)cc1F [Compound 7] | worst inhibitors | 75 | –
4 | – | CCN[C@H]1C[C@H](C)S(=O)(=O)c2sc(S(N)(=O)=O)cc21 [DZA, Dorzolamide] | – | – | hCA II inhibition, in words (hCA II): high potency inhibitors; SpiCA2 inhibition, in words (SpiCA2): low potency inhibitors; SpiCA1 inhibition, in words (SpiCA1): high potency inhibitors
5 | – | NS(=O)(=O)c1cc2c(cc1Cl)NCNS2(=O)=O [HCT, hydrochlorothiazide] | – | – | Ki (SpiCA3; [3]): 243 nM
6 | 578 | Cn1nc(S(N)(=O)=O)sc1=N [Compound 14] | – | 92 | –
7 | 251 | NS(=O)(=O)c1ccc(N2CCCCS2(=O)=O)cc1 [SLT, sulthiame] | – | – | –
8 | – | Cc1ccc(S(N)(=O)=O)cc1 [Compound 4] | – | 614 | Ki (SpiCA2): 516 nM; Ki (hCA I): 78500 nM; Ki (SpiCA3; [3]): 694 nM
9 | – | CCN1CCCC1CNC(=O)c1cc(S(N)(=O)=O)ccc1OC (centres unmarked) [SLP, Sulpiride] | worst inhibitors | – | –
10 | 241 | NS(=O)(=O)c1ccc(C(=O)O)cc1 [Compound 18] | – | 30 | –
11 | 53 | NS(=O)(=O)c1ccc(CCNS(=O)(=O)c2ccc([N+](=O)[O-])cc2CO)cc1 [Compound 21] | well inhibited | – | –
12 | – | Nc1ccc(S(=O)(=O)Nc2nnc(S(N)(=O)=O)s2)cc1 [Compound 20] | well inhibited | 28 | Ki (SpiCA3; [3]): 74 nM
13 | – | CCOc1ccc2nc(S(N)(=O)=O)sc2c1 [EZA, ethoxzolamide] | – | – | inhibition of coral calcification rates [1]: up to 73%
14 | – | NCc1ccc(S(N)(=O)=O)cc1 [Compound 5] | worst inhibitors | 83 | Ki (SpiCA2): 508 nM
15 | – | NCCc1ccc(S(N)(=O)=O)cc1 [Compound 6] | worst inhibitors | 94 | Ki (SpiCA2): 577 nM
16 | – | Nc1cc(C(F)(F)F)c(S(N)(=O)=O)cc1S(N)(=O)=O [Compound 11] | – | 367 | Ki (SpiCA3; [3]): 856 nM

Row | Ki (SpiCA3; [4]) [nM] | Structure (SMILES) | SpiCA3 inhibition, in words (SpiCA3; [2]) | Ki (SpiCA1) [nM] | other results
17 | 568 | Nc1ccc(S(=O)(=O)Nc2ccc(S(N)(=O)=O)cc2)cc1 [Compound 22] | – | – | –
18 | – | CC(=O)Nc1nnc(S(N)(=O)=O)s1 [AAZ, acetazolamide] | – | – | inhibition of coral calcification rates [1]: up to 73%
19 | – | CC1(C)O[C@@H]2[C@@H](CO[C@@]3(COS(N)(=O)=O)OC(C)(C)O[C@@H]23)O1 [TPM, topiramate] | worst inhibitors | 29 | Ki (SpiCA2): 367 nM
20 | – | Cc1ccc(-c2cc(C(F)(F)F)nn2-c2ccc(S(N)(=O)=O)cc2)cc1 [CLX, celecoxib] | worst inhibitors; also recorded: low potency inhibitors | 34 | SpiCA2 inhibition, in words (SpiCA2): low potency inhibitors; Ki (SpiCA2): 690 nM; hCA I inhibition, in words (hCA I): didn’t affect the hCAI activity; SpiCA1 inhibition, in words (SpiCA1): high potency inhibitors
21 | – | NS(=O)(=O)Cc1noc2ccccc12 [ZNS, zonisamide] | worst inhibitors | 259 | Ki (SpiCA2): 645 nM
22 | – | NS(=O)(=O)c1nnc(NS(=O)(=O)c2ccccc2)s1 [BZA, benzolamide] | – | 20 | Ki (SpiCA2): 214 nM; Ki (SpiCA3; [3]): 394 nM
23 | – | Nc1ccc(S(N)(=O)=O)cc1 [Compound 2] | worst inhibitors | 364 | –
24 | 62 | Nc1ccc(S(=O)(=O)NCc2ccc(S(N)(=O)=O)cc2)cc1 [Compound 23] | well inhibited | – | –
25 | – | Cc1onc(-c2ccccc2)c1-c1ccc(S(N)(=O)=O)cc1 [VLX, valdecoxib] | – | – | SpiCA2 inhibition, in words (SpiCA2): ineffective
26 | 92 | NS(=O)(=O)c1ccc(S(=O)(=O)Nc2cccc3c(Cl)c[nH]c23)cc1 [IND, indisulam] | well inhibited | 163 | Ki (SpiCA2): 394 nM
27 | 487 | NS(=O)(=O)c1ccc(O)cc1 [Compound 15] | – | – | –
28 | – | CCN[C@H]1CN(CCCOC)S(=O)(=O)c2sc(S(N)(=O)=O)cc21 [BRZ, brinzolamide] | low potency inhibitors | 48 | hCA II inhibition, in words (hCA II): high potency inhibitors; SpiCA2 inhibition, in words (SpiCA2): low potency inhibitors; Ki (SpiCA2): 169 nM; hCA I inhibition, in words (hCA I): didn’t affect the hCAI activity; SpiCA1 inhibition, in words (SpiCA1): high potency inhibitors; Ki (SpiCA3; [3]): 250 nM
29 | 918 | Nc1ccc(S(N)(=O)=O)cc1Br [Compound 9] | – | 104 | Ki (SpiCA2): 540 nM
30 | – | O=C1NS(=O)(=O)c2ccccc21 [SAC, Saccharin] | worst inhibitors | 40 | Ki (SpiCA2): 104 nM; Ki (hCA I): 18500 nM
31 | – | Nc1nccc(Nc2ccc(S(N)(=O)=O)cc2)n1 [Compound 19] | well inhibited | 25 | Ki (SpiCA3; [3]): 83 nM
32 | 199 | NS(=O)(=O)c1ccc(CO)cc1 [Compound 16] | – | – | –

Row | Structure (SMILES) | Ki (SpiCA3; [4]) [nM] | SpiCA3 inhibition, in words (SpiCA3; [2]) | Ki (SpiCA1) [nM] | other results
33 | NS(=O)(=O)c1cccc(S(N)(=O)=O)c1 [Compound 3] | 667 | – | – | Ki (hCA I): 79 nM
34 | Nc1cc(Cl)c(S(N)(=O)=O)cc1S(N)(=O)=O [Compound 12] | 430 | – | 295 | –
35 | Nc1ccc(S(N)(=O)=O)cc1Cl [Compound 8] | 1810 | worst inhibitors | 88 | –
36 | Nc1nnc(S(N)(=O)=O)s1 [Compound 13] | 275 | – | 105 | –
37 | CC(=O)/N=c1/sc(S(N)(=O)=O)nn1C [MZA, methazolamide] | 821 | – | 21 | –
